A word on the inhibition: it is the share of the control response that was lost under treatment. As a reminder, the GI50 is the concentration giving 50% growth inhibition.

For test [1], the target named is T1, COX-2 (Homo sapiens, UniProt P35354).
T1 construct: Fresh blood was collected in tubes containing sodium heparin by vein puncture from healthy male volunteers; endogenous in cells; host or cells: human whole blood from healthy male volunteers, stimulated with LPS
T1 sequence (P35354 18-604): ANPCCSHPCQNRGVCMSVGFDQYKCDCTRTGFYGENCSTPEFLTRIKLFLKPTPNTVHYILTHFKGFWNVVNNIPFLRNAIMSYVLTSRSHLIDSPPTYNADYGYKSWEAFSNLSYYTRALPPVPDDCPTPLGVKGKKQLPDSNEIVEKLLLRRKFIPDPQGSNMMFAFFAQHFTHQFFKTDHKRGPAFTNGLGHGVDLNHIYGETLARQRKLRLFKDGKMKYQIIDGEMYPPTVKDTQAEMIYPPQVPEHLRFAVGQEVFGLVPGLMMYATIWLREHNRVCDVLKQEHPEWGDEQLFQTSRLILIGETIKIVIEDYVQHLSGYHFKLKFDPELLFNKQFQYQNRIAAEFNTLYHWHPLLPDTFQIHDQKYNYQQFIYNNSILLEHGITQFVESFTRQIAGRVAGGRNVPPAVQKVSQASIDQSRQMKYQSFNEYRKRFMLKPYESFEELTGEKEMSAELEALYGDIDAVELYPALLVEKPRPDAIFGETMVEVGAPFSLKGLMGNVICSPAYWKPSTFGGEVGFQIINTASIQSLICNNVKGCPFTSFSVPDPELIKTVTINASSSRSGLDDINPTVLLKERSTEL
As to the kind of experiment: Human whole blood assay (PGE-2 inhibition, COX-2). In kind it is cell-based. The following applies: LPS stimulated human whole blood, NA = No activity, read-out: % PGE-2 Inhibition in hWBA. As for the experimental part: In Vitro Evaluation of Cyclooxygenase-2 (Cox-2) Inhibition Activity
The COX-2 inhibition activities of the compounds illustrated in the examples were determined by the following method.
Human whole blood provides a protein and cell rich milieu appropriate for the study of the biochemical efficacy of anti-inflammatory compounds such as selective COX-2 inhibitors. […] This correlates with the observation that COX-2 inhibitors have no effect on prostaglandin E2 (PGE2) production in normal blood. These inhibitors were active only after incubation of human blood with lipopolysaccharide (LPS), which induces COX-2 production in the blood.
Fresh blood was collected in tubes containing sodium heparin by vein puncture from healthy male volunteers. The subjects should have no apparent inflammatory conditions and should have not taken NSAIDs for at least 7 days prior to blood collection. Blood was preincubated with aspirin in vitro (12 μg/ml, at time zero) to inactivate COX-1 for 6 hours. Then test compounds (at various concentrations) or vehicle were added to blood, the blood was stimulated with LPS B:4 (10 μg/ml) and incubated for another 18 hours at 37° C. water bath. After which the blood was centrifuged, plasma was separated and stored at −80° C. (J. Pharmacol. Exp. Ther, 271, 1705, 1994; Proc. Natl. Acad. Sci. USA, 96, 7563, 1999). The plasma was assayed for PGE2 using Cayman ELISA kit as per the procedure outlined by the manufacturer (Cayman Chemicals, Ann Arbor, USA).

The test system of test [2] is TNF-α. The test can be described thus: LPS induced sepsis for measurement of TNF-α inhibition in mice. The test is classed as in vivo. The following applies: 50 mg/kg, oral, mice, serum 90 minutes after LPS. As for the experimental part: LPS Induced Sepsis for Measurement of TNF-α Inhibition in Mice
The LPS induced sepsis model in mice was performed as described by Les sekut et al (J Lab Clin Med 1994; 124:813-20). Female Swiss albino mice were selected and the body weights were equivalent within each group. The mice were fasted for 20 hours with free access to water. The mice were dosed orally with the test compound suspended in vehicle containing 0.5% Tween 80 in 0.25% Carboxy-methylcellulose sodium salt. The control mice were administered the vehicle alone. After 30 minutes of oral dosing, mice were injected with 500 μg of Lipopolysaccharide (Escherichia coli, LPS: B4 from Siga) in phosphate buffer saline solution into the intraperitoneal cavity of the mice. After 90 minutes of LPS administration mice were bled via retro-orbital sinus puncture. Blood samples were stored overnight at 4° C. Serum samples were collected by centrifuging the samples at 4000 rpm for 15 minutes at 4° C. Immediately the serum samples were analysed for TNF-α levels using commercially available mouse TNF-α ELISA kit (Amersham Biosciences) and assay was performed by the manufacturer instruction.
ED50 Measurement of TNF alpha Inhibition in Mice Sepsis Model

The subject of test [3] is NCI-H460. The test can be described thus: Anti-cancer screen (MTT), NCI-H460. The test is classed as cell-based. The following applies: Homo sapiens, NCI-H460, 48 hours. As for the experimental part:
Experimental drugs are screened for anti-cancer activity in three cell lines for their GI50, TG1 and LC50 values (using 5 concentrations for each compound). The cell lines are maintained in DMEM containing 10% fetal bovine serum. 96 well microtiter plates are inoculated with cells in […] for 24 hours at 37° C., 5% CO2, 95% air and 100% relative humidity. 5000 HCT116 cells/well, 5000 NCIH460 cells/well, 10000 U251 cells/well and 5000 MDAMB231 cells/well are plated. A separate plate with these cell lines is also inoculated to determine cell viability before the addition of the compounds (T0).
Addition of Experimental Drugs
Following 24-hour incubation, experimental drugs are added to the 96 well plates. Each plate contains one of the above cell lines and the following in triplicate: 5 different concentrations (0.01, 0.1, 1, 10 and 100 μM) of 4 different compounds, appropriate dilutions of a cytotoxic standard and control (untreated) wells. Compounds are dissolved in dimethylsulfoxide (DMSO) to make 20 mM stock solutions, on the day of drug addition and frozen at −20° C. Serial dilutions of these 20 mM stock solutions are made in complete growth medium such that 100 μL of these drug solutions in medium, of final concentrations equaling 0.01, 0.1, 1, 10 and 100 μM can be added to the cells in triplicate. Standard drugs whose anti-cancer activity has been well documented and which are regularly used are doxorubicin and SAHA.
Cells are incubated with compounds for 48 hours followed by the addition of 10 μL 3-(4,5-Dimethyl-2-thiazolyl)-2,5-diphenyl-2H-tetrazolium (MTT) solution per well and a subsequent incubation at 37° C., 5% CO2, 95% air and 100% relative humidity, protected from light. After 4 hours, well contents are aspirated carefully followed by addition of 150 μL DMSO per well. Plates are agitated to ensure solution of the formazan crystals in DMSO and absorbance read at 570 nm.
Calculation of GI50, TGI and LC50
Percent growth is calculated for each compound's concentration relative to the control and zero measurement wells (T0; viability right before compound addition).
If a test well's O.D. value is greater than the T0 measurement for that cell line % Growth=(test−zero)/(control−zero)×100
If a test well's O.D. value is lower than the T0 measurement for that cell line, then % Growth=(test−zero)/zero×100 Plotting % growth versus experimental drug concentration, GI50 is the concentration required to decrease % growth by 50%; TGI is the concentration required to decrease % growth by 100% and LC50 is the concentration required to decrease % growth by 150%.

On to `CNS(=O)(=O)c1ccc(-c2c(Cl)nc(C(F)(F)F)nc2-c2ccc(S(C)(=O)=O)cc2)cc1` [Example 4, 4-{4-Chloro-6-[4-(methylsulfonyl)phenyl]-2-(trifluoromethyl)pyrimidin-5-yl}-N-methylbenzenesulfonamide], for which the inhibition at 0.25 µM in test [1] (0.25 μM) came to 6.1%. In test [1] (1 μM), the inhibition at 1 µM came to 22.9%. For the same molecule, the inhibition at 10 µM in test [1] (10 μM) is 35.6%. In test [2], the “TNF-α Inhibition (%) at 50 mg/kg” value was 38.37%. Growth in test [3] was halved (GI50) at 1.65 µM.

The values above are taken from patent US7863446B2, “Heterocycles” (Orchid Research Laboratories Limited, priority 2006, dated 2011).
